Experiments:
[1] = system: mouse bone marrow-derived macrophages (BMDMs); assay: Trained immunity in vitro model, TNFα by ELISA after LPS; type: cell-based; conditions: for boost of trained immunity (TNF alpha) in absence of SHIP-1: LysMΔSHIP-1 BMDMs, beta-glucan-trained, 30 min pre-incubation; for TNF-alpha overproduction in trained LysMΔSHIP-1 BMDMs: 30 min pre-incubation before beta-glucan training
Experimental: BMDMs (10^5) were plated in 96-well plates (200-μl final volume, Corning) and stimulated with R10 or 100 μg/ml β-glucan (whole glucan particles, WGP, Biothera, Eagan, Minn.) for 24h. Then, cells were washed and rested 3 days in culture medium. At day 4, BMDMs were washed again and primed with 25 ng/ml IFNγ (BD Biosciences, San Jose, Calif.) for 24h. On day 5, a final wash was performed and cells were stimulated with R10 or 1 μg/ml Escherichia coli LPS (EK, Invivogen, San Diego, Calif.). After 24h, supernatants were collected for TNFα measurement by ELISA (Opteia ELISA kit, BD Biosciences).
When required, BMDMs were pre-incubated for 30 minutes prior to β-glucan training with 1.5 μM Syk inhibitor (R406, Hozel diagnostic, Cologne, Germany), […] Raf-1 inhibitor (GW5074, Sigma), 500 μM MTA (5′-Deoxy-5′-(methylthio)adenosine, Sigma), 6 μM Pargyline (Sigma) or SHIP-1 inhibitor (SHIPi, 3-α-aminocholestane, 3AC, Calbiochem, Darmstad, Germany) at the indicated doses. Inhibitors were also added in the first wash-out, before the resting period.
(§1) For TNFα normalization, the fold of cells in each condition was calculated as follows: (Live cell number in condition X)/(live cell number in non-trained WT condition). In case of SHIP-1 inhibition experiments, non-treated cells were used as reference. Thus, TNFα per cell number was normalized as (absolute TNFα value)/(fold of cells).

Candida albicans SC5314 = assay: In vivo training followed by lethal systemic Candida albicans infection, survival; set-up: species or system mouse; conditions: 0.11 mg 3AC i.p. days -8 and -7, lethal 2·10^6 C. albicans i.v.
Experimental: Mice were trained with either two intraperitoneal (i.p.) injections of 1 mg β-glucan particles on days −7 and −4 or 2·10^4 Candida albicans intravenously (i.v) on day −7. Sterile PBS was used as control. One week later, mice were challenged with 5 μg E. coli LPS (serotype 055:B5, Sigma) i.p. and blood was collected 60 min later to assess the serum TNFα (Mouse TNFα DuoSet, R&D Systems). Alternatively, mice were lethally infected with 2·10^6 C. albicans i.v. and monitored daily for weight, general health and survival, following the institutional guidance. When required mice were i.p. treated with 0.11 mg 3AC on days −8 and −7.3AC was diluted in PBS 0.3% hydroxypropylcellulose (Sigma), used as control.

mouse BMDMs = assay: BMDM viability in the training scheme (FACS, Hoechst 33258 exclusion); type: cell-based
Experimental: To assess receptor expression and cell viability, 6·10^5 BMDMs were plated in non-treated 24-well plates (1200-μl final volume, Corning) and followed the training scheme described above. Dectin-1 expression was evaluated at day 0 prior to β-glucan addition. Cell viability and TLR4 expression were assessed on day 5 before LPS stimulation. At indicated times, cells were collected in PBS/EDTA and stained on ice-cold FACS Buffer (PBS/EDTA plus 3% FBS) for flow cytometry analysis.
Samples were stained with the appropriate antibody cocktails in ice-cold FACS Buffer at 4° C. for 15 minutes. Antibodies included mouse PE-anti-TLR4 (BioLegend, San Diego, Calif.) and APC-anti-Dectin-1 (Bio-Rad). Dead cells were excluded by Hoechst 33258 (Invitrogen, Carlsbad, Calif.) incorporation. Purified anti-FcγRIII/II (2.4G2, TONBO Bioscience, San Diego, Calif.) was used to block murine Fc-receptors at 4° C. for 10 minutes in all the stainings. Events were acquired using FACSCanto 3L (BD Biosciences). Data were analyzed with FlowJo software (Tree Star, Ashland, Oreg.).

[2] = system: human peripheral blood mononuclear cells (PBMCs); assay: Trained immunity in vitro model in human PBMCs, TNFα by ELISA after LPS; type: cell-based; conditions: beta-glucan-trained human PBMCs, 10 μM 3AC, LPS stimulation
Experimental: Total PBMCs (5·10^5) were plated in 96-well plates (200-μl final volume) and stimulated with 100 μg/ml β-glucan for 24h. Then, cells were washed and rested 6 days in culture medium. At day 7, PBMCs were stimulated with 1 μg/ml LPS (EK). After 24h, supernatants were collected for TNFα measurement by ELISA (Human TNFα DuoSet, R&D Systems, Abingdon, UK). When required, PBMCs were pre-incubated for 30 minutes prior to β-glucan training with 10 μM 3AC. Inhibitor was also added together with the first wash-out, before the resting period.
as §1

SHIP-1 = molecular target: T1, SHIP-1 (Homo sapiens, UniProt Q92835); conditions: SHIP-1 inhibitor 3AC; value given in parentheses, no test described; cited from earlier work
T1 sequence (Q92835 1-1189): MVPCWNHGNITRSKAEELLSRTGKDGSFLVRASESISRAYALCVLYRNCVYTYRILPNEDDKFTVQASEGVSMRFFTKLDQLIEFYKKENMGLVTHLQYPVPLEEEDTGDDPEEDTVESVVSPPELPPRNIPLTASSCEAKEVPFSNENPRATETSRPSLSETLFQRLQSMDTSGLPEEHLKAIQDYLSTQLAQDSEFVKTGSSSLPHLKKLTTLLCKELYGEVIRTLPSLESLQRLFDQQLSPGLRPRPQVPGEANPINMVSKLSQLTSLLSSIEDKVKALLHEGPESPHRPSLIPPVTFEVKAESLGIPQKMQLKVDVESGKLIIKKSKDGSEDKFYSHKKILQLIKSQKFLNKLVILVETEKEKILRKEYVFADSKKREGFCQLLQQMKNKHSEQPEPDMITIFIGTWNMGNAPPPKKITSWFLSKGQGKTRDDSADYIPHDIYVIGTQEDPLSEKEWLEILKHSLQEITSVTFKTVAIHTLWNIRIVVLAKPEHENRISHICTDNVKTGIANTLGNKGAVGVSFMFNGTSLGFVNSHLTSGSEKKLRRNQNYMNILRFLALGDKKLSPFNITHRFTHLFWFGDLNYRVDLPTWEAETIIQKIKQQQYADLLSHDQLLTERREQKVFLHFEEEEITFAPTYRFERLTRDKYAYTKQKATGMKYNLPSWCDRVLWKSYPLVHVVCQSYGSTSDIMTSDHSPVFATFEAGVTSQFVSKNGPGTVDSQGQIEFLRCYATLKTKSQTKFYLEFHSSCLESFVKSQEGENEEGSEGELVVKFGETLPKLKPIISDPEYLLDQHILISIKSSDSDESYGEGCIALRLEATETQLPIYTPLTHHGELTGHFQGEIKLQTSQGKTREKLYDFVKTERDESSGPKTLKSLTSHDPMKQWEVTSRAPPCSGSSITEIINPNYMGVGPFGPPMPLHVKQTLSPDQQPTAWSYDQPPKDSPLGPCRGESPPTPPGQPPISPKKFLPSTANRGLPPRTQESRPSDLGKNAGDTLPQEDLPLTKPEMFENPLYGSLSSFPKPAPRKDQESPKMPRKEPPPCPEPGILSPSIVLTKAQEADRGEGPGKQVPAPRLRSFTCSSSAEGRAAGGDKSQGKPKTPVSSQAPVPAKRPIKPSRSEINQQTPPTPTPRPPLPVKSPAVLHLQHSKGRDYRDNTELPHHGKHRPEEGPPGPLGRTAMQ

human PBMCs = assay: Viability of cells in human PBMC training scheme; type: cell-based; conditions: non-trained cells in human PBMC experiment (not shown)
Experimental: To assess cell viability, 3·10^6 total PBMCs were plated in 24-well plates (1200-μl final volume, Corning) and followed the training scheme described here. At day 7, prior to LPS stimulation, cells were collected in PBS/EDTA and stained on ice-cold FACS Buffer for flow cytometry analysis.

SMILES: O=C1Nc2ccc(I)cc2/C1=C/c1cc(Br)c(O)c(Br)c1 [GW5074]
- boost of trained immunity (TNF alpha) in absence of SHIP-1 [1]: did not affect this process

SMILES: C#CCN(C)Cc1ccccc1 [pargyline, Pargyline]
- TNF-alpha overproduction in trained LysMΔSHIP-1 BMDMs ([1]; 6 μM): had no effect

SMILES: CC(C)CCC[C@@H](C)[C@H]1CC[C@H]2[C@@H]3CC[C@H]4C[C@H](N)CC[C@]4(C)[C@H]3CC[C@]12C [3AC, 3α-aminocholestane]
- survival of non-trained mice (Candida albicans SC5314): did not impact on the survival
- survival of Candida-trained mice (Candida albicans SC5314; training 2·10^4 C. albicans i.v. day -7): improved the survival
- survival of non-trained BMDMs (mouse BMDMs; 5 day-long in vitro culture in the presence of 3AC): did not survive
- survival of trained BMDMs (mouse BMDMs; beta-glucan-trained, in the presence of 3AC): did not affect survival
- TNF-alpha production in supernatants [2]: boosted TNF-alpha production
- TNF-alpha production in supernatants ([1]; beta-glucan-trained BMDMs, different doses of 3AC 30 min before training and after wash-out, LPS challenge): boosted TNF-alpha production in a dose-dependent manner
- IC50 (SHIP-1): 13.5 µM
- toxicity for non-trained cells (human PBMCs): toxic

SMILES: COc1cc(Nc2ncc(F)c(Nc3ccc4c(n3)NC(=O)C(C)(C)O4)n2)cc(OC)c1OC [R406]
- boost of trained immunity (TNF alpha) in absence of SHIP-1 ([1]; 1.5 μM): abolished the boost of trained immunity

SMILES: CSC[C@H]1O[C@@H](n2cnc3c(N)ncnc32)[C@H](O)[C@@H]1O [MTA, 5′-Deoxy-5′-(methylthio)adenosine]
- TNF-alpha overproduction in trained LysMΔSHIP-1 BMDMs ([1]; 500 μM): inhibited the increase in TNF-alpha
